Structures can show the parent of a compound that is named as a salt.
How the values were obtained:
[1] = as reported in Japanese Patent Public Disclosure No. 25323/84; cited from earlier work
rats = assay: Acute toxicity via oral route in rats; assay type: in vivo
[2] = tested on: superoxide anion (O2−) production level in thoracic aorta tissue sections; assay: Superoxide anion (O2−) production level in thoracic aorta tissue sections, lucigenin-enhanced chemiluminescence, after 8 weeks oral dosing; assay type: in vivo, Male Sprague-Dawley rats; details: endothelium-separated sections EC (−), comparison among the 4 groups (CTR, CTR+BH4, FR, FR+BH4)
Description: Male Sprague-Dawley rats (150 g, supplied from Charles River) were used to prepare a model group with insulin resistance induced by fructose feed loading (hereinafter referred to as “FR group”) according to the procedure described by Hwang et al. (Hwang, I-H. et al., Hypertension 10:512, 1987). A control group grown with a starch feed (hereinafter referred to as “CTR group”) was also prepared (FR group: n=16; CTR group: n=16). FR group received a feed containing 67% (hereinafter meaning % by weight) carbohydrate (containing 98% fructose available from Oriental Yeast Co., Ltd.), 13% fat and 20% protein, while CTR group received a feed containing 58% carbohydrate, 12% fat and […]. […] After 8 weeks, the thoracic aorta was collected. For each group, endothelium-separated sections (EC (−)) and non-separated sections (EC (+)) were prepared and examined for superoxide anion (O2^−) production level, endothelial NOS (eNOS) activity and endothelium-dependent vasorelaxation.
Group-to-group statistic analyses were made by one-way ANOVA, with the significance level being p<0.05. Multiple comparison was made by Bonferronl/Dunn, with the significance level being p<0.05.
Measurement of O2^−production level was made by the lucigenin-enhanced chemiluminescence method (Ohara et al., J. Clin. Invest. 91: 2546, 1993).

C[C@H](O)[C@H](O)C1CNc2nc(N)[nH]c(=O)c2N1 (stereo partly drawn) [(6R,S)-5,6,7,8-tetrahydrobiopterin]
toxicity [1]: only slightly toxic

C[C@H](O)[C@H](O)[C@H]1CNc2nc(N)[nH]c(=O)c2N1 [BH4 dihydrochloride, (6R)-L-erythro-5,6,7,8-tetrahydrobiopterin]
acute toxicity (rats): ≥ 2 g/kg (body weight)

C[C@H](O)[C@H](O)[C@H]1CNc2nc(N)[nH]c(=O)c2N1 [BH4, (6R)-L-erythro-5,6,7,8-tetrahydrobiopterin]
O2− production level in EC (−) [2]: No significant difference
